Data as given in patent publication US20080200515A1, “SOLID STATE FORMS OF ENANTIOPURE ILAPRAZOLE” (TAP PHARMACEUTICAL PRODUCTS INC., priority 2006, published 2008).

Legend:
[1] = tested on: gastric acid; test: Phase 1 clinical studies with ilaprazole: suppression of gastric acid; format: in vivo, human; details: at the doses studied
[2] = tested on: acid-related gastric and duodenal ulcers; test: Phase 2 clinical studies with ilaprazole in patients with gastric-acid related disorders; format: in vivo, human; details: at the doses studied

COc1ccnc(C[S+]([O-])c2nc3cc(-n4cccc4)ccc3[nH]2)c1C (stereo not drawn) [ilaprazole, 2[[(4-methoxy-3-methyl-2-pyridinyl)-methyl]sulfinyl]-5-(1H-pyrrol-1-yl) 1H-Benzimidazole]
suppression of gastric acid [1]: suppression of gastric acid occurs over a 24-hour period | healing of acid-related gastric and duodenal ulcers [2]: promoted rapid healing | symptomatic relief ([2]; patients with gastric-acid related disorders): provided symptomatic relief
